We go through two substances from patent publication US4966894A, “Polysulfated heparins for treating diseases caused by retroviruses” (BASF Aktiengesellschaft, priority 1987, dated 1990).

The subject of series [1] is reverse transcriptase from HIV I. The conditions noted are these: literature and own experiments, cf. Table 1; cited from earlier work.
The conditions of series [2]: background statement; may induce hemorrhages; cited from earlier work.
Another series relates to HIV. The conditions noted are these: Antiviral Res. 7 [1987], 361; cited from earlier work.
Series [3] relates to reverse transcriptase of Schmidt-Ruppin D (SR-D) virus. To be noted: German Laid-Open Application DOS No. 3,601,136; cited from earlier work.
In series [4] the test system is reverse transcriptase from HIV I. Put plainly: Enzyme test with reverse transcriptase from HIV I. In kind it is biochemical. The conditions noted are these: 50 μg/ml substance; 120 minutes at 37° C.; poly(rA)/oligo(dT)15 matrix, 3H-dTTP. The protocol: I. Enzyme test with reverse transcriptase from HIV I
In the model system described below, the activity of the reverse transcriptase is determined in the presence of an inhibitor, essentially according to Hansen et al. (J. Biol. Chem. 262 [1987], 12393).
The enzyme test has a total volume of 50 μl and contains the following components: 50 mM tris-HCl pH 7.8, 80 mM KCl, 8 mM MgCl2 and 1 mM DTT. This system contains the synthetic polymer poly(rA)/oligo (dT)15 (Boehringer Mannheim) as a matrix, in a concentration of 1 mg/ml. This matrix consists of a synthetic RNA having a length of 100-200 nucleotides,to which short DNA primers having a length of 15 nucleotides are bonded. The DNA primers serve as starting points for the reverse transcriptase. […]
The DNA bound to the exchanger is dried under an infrared lamp, after which the activity is determined by liquid scintillation measurement. The unspecific background is the radioactivity bound to the DEAE filter in the absence of reverse transcriptase in the method described above. […]
The activity of the reverse transcriptase in the presence of a potential inhibitor is expressed as a percentage of the activity in the absence of an inhibitor; or the inhibitory action of a substance (%) is defined as 100% minus the activity in percent.

Regarding heparin [Commercial heparin], in series [1], the “inhibitory action on reverse transcriptase of HIV I (in words)” value is “could not, however, be confirmed”. In series [2], the anticoagulant properties entry is on record as “has anticoagulant properties”. The “inhibition of HIV replication in vitro” value in the series with HIV is given as “selective inhibitor of HIV replication in vitro”. The “inhibition of reverse transcriptase of SR-D virus” value in series [3] is “inhibits reverse transcriptase”.
Turning to heparin [Unfractionated heparin], the Inhibition % in series [4] is recorded as 0%.
